In patent US20200148646A1, “6-S[…] 7-S[…] ANALOGS AND THE USE THEREOF” (Purdue Pharma, L.P., priority 2013, published 2020):

How the values were obtained:
[1] = biological target: T1, μ-opioid receptor (Homo sapiens, UniProt P35372); experiment: μ-opioid receptor radioligand ([3H]-diprenorphine) dose-displacement binding assay, HEK-293 or CHO cells
Protocol: Radioligand dose-displacement binding assays for μ-opioid receptors used 0.3 nM [^3H]-diprenorphine (Perkin Elmer, Shelton, Conn.), with […] membrane protein/well in a final volume of 500 μl binding buffer (10 mM MgCl2, 1 mM EDTA, 5% DMSO, 50 mM HEPES, pH 7.4). Reactions were carried out in the absence or presence of increasing concentrations of unlabeled naloxone. All reactions were conducted in 96-deep well polypropylene plates for 2 hr at room temperature. Binding reactions were terminated by rapid filtration onto 96-well Unifilter GF/C filter plates (Perkin Elmer, Shelton, Conn.), presoaked in 0.5% polyethylenimine using a 96-well tissue harvester (Perkin Elmer, Shelton, Conn.) followed by performing three filtration washes with 500 μl of ice-cold binding buffer. Filter plates were subsequently dried at 50° C. for 2-3 hours. BetaScint scintillation cocktail (Perkin Elmer, Shelton, Conn.) was added (50 l/well), and plates were counted using a Packard Top-Count for 1 min/well. The data were analyzed using the one-site competition curve fitting functions in GraphPad PRISM™ v. 3.0 or higher (San Diego, Calif.), or an in-house function for one-site competition curve-fitting.
(§1) In TABLE 1, binding affinity of certain Compounds of the Invention to the μ-, and κ-opioid receptors in HEK-293 or CHO cells was determined as described above.

[2] = biological target: T2, human κ opioid receptor (Homo sapiens, UniProt P41145); experiment: κ-opioid receptor radioligand ([3H]-U69,593) dose-displacement binding assay, HEK-293 or CHO cells; parameters: expressed in transfected cells; host or cells: HEK-293 cells (in-house prep)
Protocol: Membranes from recombinant HEK-293 cells expressing the human K opioid receptor (cloned in house) were prepared by lysing cells in ice cold hypotonic buffer (2.5 mM MgCl2, 50 mM HEPES, pH 7.4) (10 mL/10 cm dish) followed by homogenization with a tissue grinder/Teflon pestle. Membranes were collected by centrifugation at 30,000×g for 15 min at 4° C. and pellets were resuspended in hypotonic buffer to a final concentration of 1-3 mg/mL. Protein concentrations were determined using the BioRad protein assay reagent with bovine serum albumen as standard. Aliquots of κ receptor membranes were stored at −80° C.
Radioligand dose displacement assays used 0.4 nM [^3H]-U69,593 (GE Healthcare, Piscataway, N.J.; 40 Ci/mmole) with 15 μg membrane protein (recombinant K opioid receptor expressed in HEK 293 cells; in-house prep) in a final volume of 200 μl binding buffer (5% DMSO, 50 mM Trizma base, pH 7.4). Non-specific binding was determined in the presence of 10 μM unlabeled naloxone or U69,593. All reactions were performed in 96-well polypropylene plates for 1 hr at a temperature of about 25° C. Binding reactions were terminated by rapid filtration onto 96-well Unifilter GF/C filter plates (Perkin Elmer, Shelton, Conn.) presoaked in 0.5% polyethylenimine (Sigma). Harvesting was performed using a 96-well tissue harvester (Perkin Elmer, Shelton, Conn.) followed by five filtration washes with 200 μl ice-cold binding buffer. Filter plates were subsequently dried at 50° C. for 1-2 hours. Fifty μl/well scintillation cocktail (Perkin Elmer, Shelton, Conn.) was added and plates were counted in a Packard Top-Count for 1 min/well.
as §1

[3] = biological target: T1, μ-opioid receptor; experiment: μ-opioid receptor [35S]GTPγS functional assay, HEK-293 or CHO cells; format: biochemical; settings: for Emax: HEK-293 or CHO cells, relative to DAMGO
How it was run: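 Agonist-stimulated [35S]GTPγS binding to recombinant μ-receptor membranes (HEK-293 or CHO) with 0.20 nM [35S]GTPγS, […] and saponin, pH 7.4, 30 min at about 25 °C, then filtration and scintillation counting. EC50 from sigmoidal fits; Emax relative to DAMGO.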

[4] = biological target: T2, human κ opioid receptor; experiment: κ-opioid receptor [35S]GTPγS functional assay, HEK-293 or CHO cells; format: biochemical; parameters: expressed in transfected cells; settings: for Emax: HEK-293 or CHO cells, relative to U69,593
Protocol: Membranes from recombinant HEK-293 cells, CHO or U-2 OS cells expressing the recombinant human K opioid receptor (K) were prepared by lysing cells in ice cold hypotonic buffer (2.5 mM MgCl2, 50 mM HEPES, pH 7.4) (10 mL/10 cm dish) followed by homogenization with a tissue grinder/Teflon pestle. Functional [^35S]GTPγS binding assays were conducted as follows. K opioid receptor membrane solution was prepared by sequentially adding final concentrations of 0.026 μg/μl κ membrane protein (in-house), 10 μg/mL saponin, 3 μM GDP and 0.20 nM [^35S]GTPγS to binding buffer (100 mM NaCl, 10 mM MgCl2, 20 mM HEPES, pH 7.4) on ice. The prepared membrane solution (190 μl/well) was transferred to 96-shallow well polypropylene plates containing 10 μl of 20× concentrated stock solutions of agonist prepared in DMSO. Plates were incubated for 30 min at a temperature of about 25° C. with shaking. Reactions were terminated by rapid filtration onto 96-well Unifilter GF/B filter plates (Perkin Elmer, Shelton, Conn.) using a 96-well tissue harvester (Packard) and followed by three filtration washes with 200 μl ice-cold binding buffer (10 mM NaH2PO4, 10 mM Na2HPO4, pH 7.4). Filter plates were subsequently dried at 50° C. for 2-3 hours. Fifty μl/well scintillation cocktail (Perkin Elmer, Shelton, Conn.) was added and plates were counted in a Packard Top-Count for 1 min/well.
κ GTP EC50 is the concentration of a compound providing 50% of the maximal response for the compound at a κ receptor.
κ GTP Emax (%) is the maximal effect elicited by a compound relative to the effect elicited by U69,593.
In TABLE 2, activity response of certain Compounds of the Invention at the μ- and κ-opioid receptors using HEK-293 or CHO cells was determined as described above for functional assays.

[5] = biological target: T1, μ-opioid receptor; experiment: μ-opioid receptor [35S]GTPγS functional assay, U-2 OS cells; format: biochemical; parameters: host or cells: U-2 OS cells; settings: for Emax: U2-OS cells, relative to DAMGO
How it was run: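 U-2 OS membranes expressing recombinant human μ-receptor (0.026 mg/mL) were incubated with compound, […], saponin and [35S]GTPγS 0.20 nM in HEPES/NaCl/MgCl2 buffer pH 7.4 for 30 min at about 25° C. Filter-bound radioactivity gave sigmoidal fits for EC50; Emax is relative to DAMGO.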

[6] = biological target: T2, human κ opioid receptor; experiment: κ-opioid receptor [35S]GTPγS functional assay, U-2 OS cells; format: biochemical; parameters: expressed in transfected cells; host or cells: U-2 OS cells (in-house membranes); settings: for Emax: U2-OS cells, relative to U69,593
How it was run: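 Membranes from U-2 OS cells expressing human κ receptor (0.026 μg/μl protein) were incubated with agonist, 10 μg/mL saponin, 3 μM GDP and 0.20 nM [35S]GTPγS in pH 7.4 HEPES buffer for 30 min at about 25 °C. Bound radioactivity was measured after filtration. EC50 was taken at half-maximal response; Emax is relative to U69,593.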

T2 sequence (P41145 whole entry): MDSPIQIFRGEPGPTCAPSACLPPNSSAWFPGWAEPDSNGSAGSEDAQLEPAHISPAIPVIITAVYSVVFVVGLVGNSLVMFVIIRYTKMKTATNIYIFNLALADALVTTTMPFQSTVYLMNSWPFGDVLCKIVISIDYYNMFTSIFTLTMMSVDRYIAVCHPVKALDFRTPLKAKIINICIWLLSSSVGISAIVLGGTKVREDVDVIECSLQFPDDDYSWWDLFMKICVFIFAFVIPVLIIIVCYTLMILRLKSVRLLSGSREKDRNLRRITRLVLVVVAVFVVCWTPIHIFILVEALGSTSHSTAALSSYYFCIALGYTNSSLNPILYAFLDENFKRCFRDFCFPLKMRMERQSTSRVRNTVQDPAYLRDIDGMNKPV
T1 sequence (P35372 whole entry, species assumed): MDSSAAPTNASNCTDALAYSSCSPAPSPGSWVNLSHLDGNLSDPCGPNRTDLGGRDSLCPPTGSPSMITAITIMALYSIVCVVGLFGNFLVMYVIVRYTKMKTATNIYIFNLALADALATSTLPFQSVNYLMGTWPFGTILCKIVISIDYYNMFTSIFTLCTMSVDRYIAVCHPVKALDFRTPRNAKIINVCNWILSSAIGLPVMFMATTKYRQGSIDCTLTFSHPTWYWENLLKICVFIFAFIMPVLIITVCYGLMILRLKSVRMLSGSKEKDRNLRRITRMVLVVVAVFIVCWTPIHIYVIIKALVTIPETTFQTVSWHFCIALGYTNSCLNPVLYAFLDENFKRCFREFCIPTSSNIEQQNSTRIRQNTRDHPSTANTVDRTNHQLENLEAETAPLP

| SMILES | Ki [1] | Ki [2] | EC50 [3] | Emax [3] | EC50 [4] | Emax [4] | EC50 [5] | Emax [5] | EC50 [6] | Emax [6] |
| --- | --- | --- | --- | --- | --- | --- | --- | --- | --- | --- |
| COc1ccc2c(c1)[C@]13CCN(CC4CC4)[C@H](C2)[C@]1(O)CC[C@H](O)C3 [Compound 4, (4bR,6S,8aS,9R)-11-(cyclopropylmethyl)-3-methoxy-5,6,7,8,9,10-hexahydro-8aH-9,4b-(epiminoethano)phenanthrene-6,8a-diol] | 4590 ± 356 nM | 172 ± 12.8 nM | 6140 nM | 33.7 ± 2.96% | 7860 nM | 55.8 ± 5.88% |  |  |  |  |
| COc1ccc2c(c1)[C@]13CCN(CC4CC4)[C@H](C2)[C@]1(O)CC[C@@H](CC(=O)O)C3 [Compound 9, 2-((4bS,6R,8aS,9R)-11-(cyclopropylmethyl)-8a-hydroxy-3-methoxy-6,7,8,8a,9,10-hexahydro-5H-9,4b-(epiminoethano)phenanthren-6-yl)acetic acid] |  | 597 ± 163 nM |  |  | 597 ± 163 nM |  | 574 ± 87.2 nM | 36.3 ± 0.88% |  |  |
| N=C(N)NCCCC(=O)N[C@@H]1CC[C@@]2(O)[C@H]3Cc4ccc(O)cc4[C@@]2(CCN3CC2CC2)C1 [Compound 22, N-((4bR,6R,8aS,9R)-11-(cyclopropylmethyl)-3,8a-dihydroxy-6,7,8,8a,9,10-hexahydro-5H-9,4b-(epiminoethano)phenanthren-6-yl)-4-guanidinobutanamide] | 251 ± 29.4 nM | 1.85 ± 0.22 nM | > 20000 nM | 5 ± 1.53% |  |  | 247 ± 25.5 nM | 60 ± 5.51% | 27.1 ± 4.18 nM | 107 ± 2.33% |
| N=C(N)Nc1ccc(N[C@@H]2CC[C@@]3(O)[C@H]4Cc5ccc(O)cc5[C@@]3(CCN4CC3CC3)C2)cc1 [Compound 24, 1-(4-(((4bR,6R,8aS,9R)-11-(cyclopropylmethyl)-3,8a-dihydroxy-6,7,8,8a,9,10-hexahydro-5H-9,4b-(epiminoethano)phenanthren-6-yl)amino)phenyl)guanidine] | 8.42 ± 2.88 nM | 0.24 ± 0.021 nM | > 20000 nM | 4.33 ± 1.45% |  |  | 8.14 ± 0.94 nM | 55.3 ± 2.91% | 2.91 ± 0.18 nM | 104 ± 4.04% |
| CC(C)CN[C@@H]1C[C@@]2(O)[C@H]3Cc4ccc(O)cc4[C@@]2(CCN3CC2CC2)C[C@@H]1O [Compound 34, (4bR,6S,7R,8aS,9R)-11-(cyclopropylmethyl)-7-(isobutylamino)-5,6,7,8,9,10-hexahydro-8aH-9,4b-(epiminoethano)phenanthrene-3,6,8a-triol] |  |  | > 20000 nM | 1% | 0.55 ± 0.23 nM | 32 ± 1.35% | 3.84 ± 1.53 nM | 20.3 ± 1.76% | 0.81 ± 0.12 nM | 71 ± 1.53% |
| CC(C)C(=O)N[C@H]1C[C@@]2(O)[C@H]3Cc4ccc(O)cc4[C@@]2(CCN3CC2CC2)CC1O (stereo partly drawn) [Compound 50, N-((4bR,7S,8aS,9R)-11-(cyclopropylmethyl)-3,6,8a-trihydroxy-6,7,8,8a,9,10-hexahydro-5H-9,4b-(epiminoethano)phenanthren-7-yl)isobutyramide] |  |  | > 20000 nM | 1% | 29.2 ± 2.21 nM | 45.7 ± 2.19% | 113 ± 60.8 nM | 12.8 ± 0.85% | 47.3 ± 3.7 nM | 91.7 ± 1.33% |
| CC(=O)N[C@H]1C[C@@]2(O)[C@H]3Cc4ccc(O)cc4[C@@]2(CCN3CC2CC2)C[C@H]1O [Compound 55, N-((4bR,6R,7S,8aS,9R)-11-(cyclopropylmethyl)-3,6,8a-trihydroxy-6,7,8,8a,9,10-hexahydro-5H-9,4b-(epiminoethano)phenanthren-7-yl)acetamide] | 201 ± 62.1 nM | 54.8 ± 8.83 nM | > 20000 nM | 1% | 203 ± 20.2 nM | 13.3 ± 0.88% | > 20000 nM | 4% | 194 ± 54.4 nM | 77.7 ± 5.49% |
| CCC(=O)N[C@H]1C[C@@]2(O)[C@H]3Cc4ccc(O)cc4[C@@]2(CCN3CC2CC2)C[C@H]1O [Compound 56, N-((4bR,6R,7S,8aS,9R)-11-(cyclopropylmethyl)-3,6,8a-trihydroxy-6,7,8,8a,9,10-hexahydro-5H-9,4b-(epiminoethano)phenanthren-7-yl)propionamide] | 54.2 ± 12.5 nM | 7.19 ± 0.87 nM | > 20000 nM | 1% | 71.8 ± 8.76 nM | 53 ± 0.58% | 95 ± 16.4 nM | 19.3 ± 1.45% | 29.3 ± 4.34 nM | 105 ± 3.38% |
| CCC(=O)N[C@H]1C[C@@]2(O)[C@H]3Cc4ccc(O)cc4[C@@]2(CCN3CC2CC2)C[C@@H]1O [Compound 57, N-((4bR,6S,7S,8aS,9R)-11-(cyclopropylmethyl)-3,6,8a-trihydroxy-6,7,8,8a,9,10-hexahydro-5H-9,4b-(epiminoethano)phenanthren-7-yl)propionamide] | 44.9 ± 7.71 nM | 16.7 ± 2.61 nM | > 20000 nM | 1.5% | 26.1 ± 6.87 nM | 37.2 ± 3.07% | 77.7 ± 10.3 nM | 9 ± 0.58% | 33.1 ± 3.53 nM | 113 ± 5.86% |
| CC(C)CCCC(=O)N[C@H]1C[C@@]2(O)[C@H]3Cc4ccc(O)cc4[C@@]2(CCN3CC2CC2)CC1O (stereo partly drawn) [Compound 63, N-((4bR,7S,8aS,9R)-11-(cyclopropylmethyl)-3,6,8a-trihydroxy-6,7,8,8a,9,10-hexahydro-5H-9,4b-(epiminoethano)phenanthren-7-yl)-5-methylhexanamide] |  | 11.5 ± 0.97 nM | 81.2 ± 8.25 nM | 23.3 ± 1.33% | 23 ± 4.32 nM | 21.2 ± 0.44% | 63.2 ± 8.31 nM | 58.7 ± 1.33% | 38.8 ± 7.82 nM | 84.3 ± 1.67% |
